Reference: the CheMixHub viscosity set
Several values for one entry are separate records, joined by “and”; a condition that tells them apart may be missing. Equal entries are not always repeated.

Test: xn = mol fraction of the nth substance listed

C1C[C@@H]2[C@H]3CC[C@H](C3)[C@@H]2C1 + CCCCCCCCCC
viscosity
Conditions	293.15 K	298.15 K	303.15 K	308.15 K	313.15 K	318.15 K	323.15 K
100 kPa, x1 = 0.1005	0.989 mPa·s and 0.992 mPa·s	0.921 mPa·s	0.855 mPa·s and 0.858 mPa·s	0.8 mPa·s and 0.803 mPa·s	0.75 mPa·s and 0.754 mPa·s	0.706 mPa·s and 0.709 mPa·s	0.666 mPa·s and 0.669 mPa·s
100 kPa, x1 = 0.2006	1.074 mPa·s and 1.083 mPa·s	0.993 mPa·s and 1.002 mPa·s	0.925 mPa·s and 0.931 mPa·s	0.863 mPa·s and 0.869 mPa·s	0.808 mPa·s and 0.813 mPa·s	0.759 mPa·s and 0.764 mPa·s	0.715 mPa·s and 0.72 mPa·s
100 kPa, x1 = 0.3006	1.196 mPa·s	1.105 mPa·s	1.023 mPa·s	0.949 mPa·s	0.885 mPa·s	0.828 mPa·s	0.778 mPa·s
100 kPa, x1 = 0.3043	1.18 mPa·s	1.09 mPa·s	1.013 mPa·s	0.943 mPa·s	0.88 mPa·s	0.825 mPa·s	0.777 mPa·s
100 kPa, x1 = 0.3995	1.297 mPa·s	1.195 mPa·s	1.105 mPa·s	1.027 mPa·s	0.958 mPa·s	0.897 mPa·s	0.841 mPa·s
100 kPa, x1 = 0.4006	1.306 mPa·s	1.203 mPa·s	1.113 mPa·s	1.033 mPa·s	0.964 mPa·s	0.902 mPa·s	0.848 mPa·s
100 kPa, x1 = 0.4977	1.442 mPa·s	1.327 mPa·s	1.226 mPa·s	1.137 mPa·s	1.057 mPa·s	0.988 mPa·s	0.925 mPa·s
100 kPa, x1 = 0.4997	1.45 mPa·s	1.333 mPa·s	1.232 mPa·s	1.142 mPa·s	1.063 mPa·s	0.99 mPa·s	0.927 mPa·s
100 kPa, x1 = 0.5986	1.619 mPa·s	1.486 mPa·s	1.37 mPa·s	1.267 mPa·s	1.176 mPa·s	1.096 mPa·s	1.023 mPa·s
100 kPa, x1 = 0.6007	1.629 mPa·s	1.495 mPa·s	1.378 mPa·s	1.275 mPa·s	1.184 mPa·s	1.103 mPa·s	1.031 mPa·s
100 kPa, x1 = 0.7	1.859 mPa·s	1.7 mPa·s	1.562 mPa·s	1.441 mPa·s	–	1.238 mPa·s	1.155 mPa·s
100 kPa, x1 = 0.7001	1.849 mPa·s	1.692 mPa·s	1.555 mPa·s	1.435 mPa·s	–	1.234 mPa·s	1.15 mPa·s
100 kPa, x1 = 0.7963	2.117 mPa·s	1.938 mPa·s	1.776 mPa·s	1.634 mPa·s	1.51 mPa·s	1.398 mPa·s	1.299 mPa·s
100 kPa, x1 = 0.8002	2.153 mPa·s	1.963 mPa·s	1.798 mPa·s	1.655 mPa·s	–	1.413 mPa·s	1.313 mPa·s
100 kPa, x1 = 0.8994	2.512 mPa·s	2.284 mPa·s	2.086 mPa·s	1.914 mPa·s	1.763 mPa·s	1.629 mPa·s	1.511 mPa·s
100 kPa, x1 = 0.8995	2.525 mPa·s	2.294 mPa·s	2.093 mPa·s	1.918 mPa·s	1.765 mPa·s	1.631 mPa·s	1.513 mPa·s
101 kPa, x2 = 0.4893	1.525 mPa·s	–	–	–	–	–	–
101 kPa, x2 = 0.6905	1.245 mPa·s	–	–	–	–	–	–

O=S(=O)([O-])[O-].[O]=[V+2] + O
viscosity, 100 kPa
Conditions	293.15 K	298.15 K	303.15 K	308.15 K	313.15 K	318.15 K	323.15 K
x1 = 0.000898	1.035 mPa·s	0.9204 mPa·s	0.8258 mPa·s	0.7466 mPa·s	0.6802 mPa·s	0.6242 mPa·s	0.576 mPa·s
x1 = 0.00129	1.048 mPa·s	0.9314 mPa·s	0.836 mPa·s	0.7558 mPa·s	0.688 mPa·s	0.6311 mPa·s	0.5827 mPa·s
x1 = 0.00163	1.068 mPa·s	0.9499 mPa·s	0.8519 mPa·s	0.7707 mPa·s	0.7015 mPa·s	0.6439 mPa·s	0.5926 mPa·s
x1 = 0.002247	1.089 mPa·s	0.9678 mPa·s	0.8664 mPa·s	0.7814 mPa·s	–	–	–
x1 = 0.002326	1.101 mPa·s	0.978 mPa·s	0.8762 mPa·s	0.7911 mPa·s	0.7207 mPa·s	0.6594 mPa·s	0.6101 mPa·s
x1 = 0.002883	1.132 mPa·s	1.005 mPa·s	0.8997 mPa·s	0.8136 mPa·s	0.7379 mPa·s	0.6736 mPa·s	0.6205 mPa·s
x1 = 0.003583	1.154 mPa·s	1.024 mPa·s	0.9168 mPa·s	0.8267 mPa·s	0.7514 mPa·s	0.6872 mPa·s	0.6348 mPa·s
x1 = 0.004098	1.174 mPa·s	1.042 mPa·s	0.9321 mPa·s	0.8405 mPa·s	0.7626 mPa·s	0.6972 mPa·s	0.6409 mPa·s
x1 = 0.004417	1.19 mPa·s	–	0.9437 mPa·s	0.8499 mPa·s	0.7718 mPa·s	0.7049 mPa·s	0.6484 mPa·s
x1 = 0.00448	1.189 mPa·s	–	0.943 mPa·s	0.8499 mPa·s	–	–	–
x1 = 0.005377	1.236 mPa·s	1.094 mPa·s	0.9762 mPa·s	0.8796 mPa·s	0.7968 mPa·s	0.7274 mPa·s	0.6684 mPa·s
x1 = 0.006709	1.297 mPa·s	1.148 mPa·s	1.024 mPa·s	–	–	–	–
x1 = 0.00893	1.418 mPa·s	1.252 mPa·s	1.115 mPa·s	–	–	–	–
x1 = 0.0111	1.548 mPa·s	1.364 mPa·s	1.212 mPa·s	–	–	–	–
x1 = 0.0133	1.696 mPa·s	1.491 mPa·s	1.322 mPa·s	–	–	–	–
x1 = 0.0155	1.854 mPa·s	1.627 mPa·s	1.44 mPa·s	–	–	–	–
x1 = 0.0177	2.031 mPa·s	1.777 mPa·s	1.57 mPa·s	–	–	–	–
x1 = 0.01986	2.226 mPa·s	1.943 mPa·s	1.711 mPa·s	–	–	–	–
x1 = 0.02202	2.436 mPa·s	2.115 mPa·s and 2.121 mPa·s	–	–	–	–	–
x1 = 0.02418	2.662 mPa·s	2.312 mPa·s	2.027 mPa·s	–	–	–	–
x1 = 0.02631	2.89 mPa·s	2.509 mPa·s	2.196 mPa·s	–	–	–	–
x1 = 0.03893	–	–	–	–	–	2.575 mPa·s	–
